Results as given in US12486259B2, “FXR agonist having pyrazine structure, and preparation method and use” (JIANGSU TASLY DIYI PHARMACEUTICAL CO., LTD., priority 2020, dated 2025).

Columns and labels:
[1] = system: C57/BL6 mice fed MCD diet; assay: Pharmacodynamic test in methionine-choline deficient diet (MCD) model of non-alcoholic fatty liver disease; format: in vivo
Description: Animal strain: C57/BL6, Animal Grade: SPF Grade, Gender: male, Animal Age: 8 weeks old, Animals Received Date: 2018 Sep. 28, Animal Source: Shanghai Lingchang Biotechnology Co. Ltd., Animal Certificate No: SCXK (Shanghai)2013-0018 2013001836799, Mouse feeding Environment: temperature 20-26° C., humidity 40-70%, 12 hour day and night cycle.
5% Solutol HS15/Normal saline: after Solutol HS15 (polyethylene glycol 15 hydroxystearate solubilizer) is dissolved in a water bath at 37° C., 5 ml of it is dissolved in 100 ml of normal saline, thoroughly stirred for later use.
Obeticholic acid/5% Solutol HS15/Normal saline: 0.15 ml Solutol HS15 is added to accurately weighed 12 mg obeticholic acid to fully dissolve it, and 2.85 ml normal saline is added, vigorously mixed and dissolved by the ultrasound. • TM-01 Group/5% Solutol HS15/Normal saline: 2.5 ml of 6 mg/ml TM-01 suspension is taken, 2.5 ml of 5% Solutol HS15/normal saline is added, and the mixture is mixed well. • TM-02 Group/5% Solutol HS15/Normal saline: 2.5 ml of 6 mg/ml TM-02 suspension is taken, 2.5 ml of 5% Solutol HS15/normal saline is added, and the mixture is mixed well. • TM-06 Group/5% Solutol HS15/Normal saline: 2.5 ml of 6 mg/ml TM-06 suspension is taken, 2.5 ml of 5% Solutol HS15/Normal saline is added, and the mixture is mixed well. • TM-09 Group/5% Solutol HS15/Normal saline: 2.5 ml of 6 mg/ml TM-09 suspension is taken, 2.5 ml of 5% Solutol HS15/Normal saline is added, and the mixture is mixed well.
Menstruum and test compounds are administered by gavage at a dose volume of 10 ml/kg;
After reaching the animal house, 70 8-week-old C57/BL6 mice are fed adaptively and randomly divided into 7 groups according to body weight after the average body weight reaches 23 g. They are given the model feed. The first group receives the control diet MCS and the remaining groups receive the MCD diet, while each group of mice receives compound treatment as follows: • Group 1. Control Group: MCS, menstruum, administered once daily by gavage; • Group 2. Model Group: MCD, menstruum, administered once daily by gavage; • Group 3. Obeticholic acid group: MCD, 40 mpk obeticholic acid, administered once daily by gavage; • Group 4. TM-01 Group: MCD, 30 mpk TM-01, administered once daily by gavage; • Group 5. TM-02 Group: MCD, 30 mpk TM-02, administered once daily by gavage; • Group 6. TM-06 Group: MCD, 30 mpk TM-06, administered once daily by gavage; • Group 7. TM-09 Group: MCD, 30 mpk TM-09, administered once daily by gavage; 2.4 Experimental Methods
Body weight and food intake are measured weekly during the experiment. Twenty-one days after administration, tail tips are bled with microcapillaries for AST, ALT measurements. Twenty-eight days after administration, mice are terminated, hearts are bled, and liver tissues are collected and weighed. One portion is snap frozen with liquid nitrogen for subsequent analysis and the other portion are fixed for pathological analysis.
Mouse blood is centrifuged at 5000 rpm for 10 minutes and supernatants are collected for determination of TG (triglycerides), TC (total cholesterol), HDL (high density lipoprotein), LDL (low density lipoprotein), AST (aspartate aminotransferase) and ALT (alanine aminotransferase).
AST and ALT after administration for three and four weeks are determined according to the instructions of kit. The blood lipid index 4 weeks after administration is sent to Adicon Medical Laboratory Co. Ltd. for detection.
The livers are removed from −80° C., homogenized in PBS (phosphate buffered saline), extracted with chloroform methanol organic phase, and subjected to TC and TG assays using the kit, normalized for protein content.
Four weeks after administration, the mice are anesthetized. The heart is bled, the liver is isolated and weighed. The right lobe is snapfrozen with liquid nitrogen and stored at −80° C. for liver lipid analysis. The left lobe is isolated and fixed in 10% formalin for subsequent HE and Sirius Red staining. […]

in vitro = settings: human; for recovery: Caco-2, Recovery rate A-B
Description: The bi-directional transport of target compounds from apical side (AP) to basolateral side (BL) and from BL side to AP side is studied by using human colon adenocarcinoma cell line Caco-2 monolayer model. The transport parameters, apparent permeability coefficient (Papp) and efflux ratio are calculated by quantitative analysis with high performance liquid chromatography (HPLC).

[2] = MCD mice, after 4 weeks, TM 30 mpk, obeticholic acid 40 mpk
[3] = MCD mice, blood, 3 weeks, TM 30 mpk, obeticholic acid 40 mpk, gavage
[4] = MCD mice, blood, 4 weeks, TM 30 mpk, obeticholic acid 40 mpk, gavage
[5] = MCD mice, blood, after 4 weeks, TM 30 mpk, obeticholic acid 40 mpk
[6] = MCD mice, liver, after 4 weeks, TM 30 mpk, obeticholic acid 40 mpk
[7] = after 4 weeks of MCD and compounds treatment

Weight, 0 week ([1]; MCD mice, 0 week, TM compounds 30 mpk, obeticholic acid 40 mpk, once daily by gavage): 23.78 ± 0.47 g | Food intake, 1 week ([1]; MCD mice, 1 week, TM 30 mpk, obeticholic acid 40 mpk, gavage): 3.011 ± 0.555 g | Weight, 1 week ([1]; MCD mice, 1 week, TM compounds 30 mpk, obeticholic acid 40 mpk, once daily by gavage): 21.24 ± 0.42 g | Food intake, 2 weeks ([1]; MCD mice, 2 weeks, TM 30 mpk, obeticholic acid 40 mpk, gavage): 2.746 ± 0.466 g | Weight, 2 weeks ([1]; MCD mice, 2 weeks, TM compounds 30 mpk, obeticholic acid 40 mpk, once daily by gavage): 18.49 ± 0.41 g | Food intake, 3 weeks ([1]; MCD mice, 3 weeks, TM 30 mpk, obeticholic acid 40 mpk, gavage): 1.909 ± 0.215 g | Weight, 3 weeks ([1]; MCD mice, 3 weeks, TM compounds 30 mpk, obeticholic acid 40 mpk, once daily by gavage): 16.97 ± 0.38 g | Food intake, 4 weeks ([1]; MCD mice, 4 weeks, TM 30 mpk, obeticholic acid 40 mpk, gavage): 1.697 ± 0.027 g | Weight, 4 week ([1]; MCD mice, 4 weeks, TM compounds 30 mpk, obeticholic acid 40 mpk, once daily by gavage): 14.70 ± 0.20 g | efflux ratio (in vitro; Caco-2): 3.95 | Papp A→B (in vitro; Caco-2, Papp A-B): 8.25 ×10⁻⁶ cm/s | Papp A→B (in vitro; Caco-2, Papp A-B, Average): 8.17 ×10⁻⁶ cm/s | Papp A→B (in vitro; Caco-2, Papp A-B, Sample-01): 6.42 ×10⁻⁶ cm/s | Papp A→B (in vitro; Caco-2, Papp A-B, Sample-02): 9.91 ×10⁻⁶ cm/s | Papp B→A (in vitro; Caco-2, Papp B-A): 32.6 ×10⁻⁶ cm/s | Papp A→B (in vitro; Caco-2, Papp, A-to-B values (highly permeable substrates)): > 2.5 ×10⁻⁶ cm/s | recovery (in vitro; Average): 71.2% | recovery (in vitro; Sample-01): 63.9% | recovery (in vitro; Sample-02): 78.5%
Compound: O=C(O)c1cccc(C2CC(O)(c3cnc(OCc4c(-c5c(Cl)cccc5Cl)noc4C4CC4)cn3)C2)c1 (stereo not shown) [TM-01, 3-(3-(5-(5-cyclopropyl-3-(2,6-dichlorophenyl)isoxazole-4-ylmethoxy)-2-pyrazine)-1-hydroxycyclobutane) benzoic acid]
liver weight [1, 2]: 0.89 ± 0.05 g | liver/body weight [1, 2]: 6.32 ± 0.26 % | ALT, 3 weeks [1, 3]: 41.58 ± 10.32 U/L | AST, 3 weeks [1, 3]: 53.50 ± 19.62 U/L | ALT, 4 weeks [1, 4]: 14.28 ± 13.21 U/L | AST, 4 weeks [1, 4]: 40.36 ± 26.31 U/L | HDL (blood lipid) [1, 5]: 0.59 ± 0.11 mmol/L | LDL (blood lipid) [1, 5]: 2.61 ± 0.26 mmol/L | TC (blood lipid) [1, 5]: 0.95 ± 0.44 mmol/L | TG (blood lipid) [1, 5]: 0.53 ± 0.10 mmol/L | HE score ([1]; MCD mice, liver pathology score (Table 12 criteria), 4 weeks, TM 30 mpk, obeticholic acid 40 mpk): 1 | Sirius red staining area ([1]; MCD mice, liver, 4 weeks, TM 30 mpk, obeticholic acid 40 mpk): 0.365 ± 0.069 % | liver TC [1, 6]: 34.9 ± 8.2 µmol/g protein | liver TG [1, 6]: 247 ± 54.1 µmol/g protein | blood lipid levels (in words) [1, 7]: different reductions in blood lipids | liver triglyceride and cholesterol content (in words) [1, 7]: significant lowering effect on liver triglyceride and cholesterol levels | liver weight and liver/body weight (in words) [1, 7]: significantly increases mouse liver weight and liver/body weight | ALT and AST compared to the model group (in words) ([1]; three weeks after MCD and compounds treatment): significantly reduced
